Source: ChEMBL document CHEMBL1201862, “PubChem BioAssay data set” (2004)
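Briefly, cells in 96-well plates were exposed to five compound concentrations for 48 h, and endpoints were estimated by linear interpolation. GI50: concentration for 50% inhibition of growth.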 Active and inactive are the calls of the source. Cut-off read from the data, not from the text of the source: active = GI50 up to about 1.1 µM and inactive = higher.

Key:
Test in all cases: growth of human tumour cells (NCI), 48 h
SK-MEL-2 = tested on: SK-MEL-2
UACC-257 = tested on: UACC-257
UO-31 = tested on: UO-31
MDA-N = tested on: MDA-N
OVCAR-3 = tested on: OVCAR-3
OVCAR-8 = tested on: OVCAR-8
MDA-MB-435 = tested on: MDA-MB-435
MOLT-4 = tested on: MOLT-4
K562 = tested on: K562
HL-60 = tested on: HL-60
CCRF-CEM = tested on: CCRF-CEM
SF-268 = tested on: SF-268
KM12 = tested on: KM12
A498 = tested on: A498
U-251 = tested on: U-251
NCI-H460 = tested on: NCI-H460
SNB-75 = tested on: SNB-75
HT-29 = tested on: HT-29
CAKI-1 = tested on: CAKI-1
IGROV-1 = tested on: IGROV-1

CC(C)c1c(P(=O)(c2ccccc2)c2ccccc2)n(C)c2ccccc12
GI50 (SK-MEL-2): 88.3 µM (inactive)
GI50 (UACC-257): 90.6 µM (inactive)
GI50 (UO-31): 31.8 µM (inactive)
GI50 (MDA-N): 56.1 µM (inactive)
GI50 (OVCAR-3): 26.4 µM (inactive)
GI50 (OVCAR-8): 89.9 µM (inactive)
GI50 (MDA-MB-435): 45.5 µM (inactive)
GI50 (MOLT-4): 34.8 µM (inactive)
GI50 (K562): 37.8 µM (inactive)
GI50 (HL-60): 28.1 µM (inactive)
GI50 (CCRF-CEM): 59 µM (inactive)
GI50 (SF-268): 51.9 µM (inactive)
GI50 (KM12): 51.8 µM (inactive)
GI50 (A498): > 100 µM (inactive)
GI50 (U-251): 97.3 µM (inactive)
GI50 (NCI-H460): 66.8 µM (inactive)
GI50 (SNB-75): 95.3 µM (inactive)
GI50 (HT-29): 53.8 µM (inactive)

COc1ccc(-c2c(C(C)=O)c(-c3ccccc3)n(C3OC(CO)C(O)C(O)C3O)c(=S)c2C#N)cc1 (configuration not stated)
GI50 (UACC-257): > 100 µM (inactive)
GI50 (UO-31): 4 µM (inactive)
GI50 (MDA-N): > 100 µM (inactive)
GI50 (OVCAR-3): > 100 µM (inactive)
GI50 (OVCAR-8): > 100 µM (inactive)
GI50 (MDA-MB-435): > 100 µM (inactive)
GI50 (MOLT-4): > 100 µM (inactive)
GI50 (K562): > 100 µM (inactive)
GI50 (HL-60): > 100 µM (inactive)
GI50 (CCRF-CEM): > 100 µM (inactive)
GI50 (SF-268): > 100 µM (inactive)
GI50 (CAKI-1): > 100 µM (inactive)
GI50 (KM12): > 100 µM (inactive)
GI50 (A498): > 100 µM (inactive)
GI50 (U-251): > 100 µM (inactive)
GI50 (NCI-H460): > 100 µM (inactive)
GI50 (HT-29): > 100 µM (inactive)
GI50 (IGROV-1): > 100 µM (inactive)

O=c1[nH]nc(-c2ccccc2)c2[nH]c3c4ccccc4ccc3c12
GI50 (SK-MEL-2): 7.62 µM (inactive)
GI50 (UACC-257): 5.82 µM (inactive)
GI50 (MDA-N): 0.199 µM (active)
GI50 (OVCAR-3): 0.424 µM (active)
GI50 (MDA-MB-435): 0.193 µM (active)
GI50 (MOLT-4): 1.64 µM (inactive)
GI50 (K562): 0.279 µM (active)
GI50 (HL-60): 0.548 µM (active)
GI50 (CCRF-CEM): 1.56 µM (inactive)
GI50 (SF-268): 1.33 µM (inactive)
GI50 (KM12): 0.692 µM (active)
GI50 (A498): 1.51 µM (inactive)
GI50 (U-251): 0.885 µM (active)
GI50 (NCI-H460): 0.56 µM (active)
GI50 (SNB-75): 3.93 µM (inactive)
GI50 (HT-29): 0.459 µM (active)
GI50 (IGROV-1): 4.24 µM (inactive)

COI1NC(=O)c2ccccc21
GI50 (SK-MEL-2): > 100 µM (inactive)
GI50 (UO-31): > 100 µM (inactive)
GI50 (MDA-N): > 100 µM (inactive)
GI50 (OVCAR-3): > 100 µM (inactive)
GI50 (OVCAR-8): > 100 µM (inactive)
GI50 (MDA-MB-435): > 100 µM (inactive)
GI50 (MOLT-4): > 100 µM (inactive)
GI50 (K562): > 100 µM (inactive)
GI50 (HL-60): > 100 µM (inactive)
GI50 (CCRF-CEM): 60.4 µM (inactive)
GI50 (SF-268): > 100 µM (inactive)
GI50 (KM12): > 100 µM (inactive)
GI50 (A498): > 100 µM (inactive)
GI50 (U-251): > 100 µM (inactive)
GI50 (SNB-75): > 100 µM (inactive)
GI50 (HT-29): > 100 µM (inactive)
GI50 (IGROV-1): > 100 µM (inactive)

OC(CN1CCCCC1)c1ccc(/C=C/c2ccc(Cl)cc2)cc1 (configuration not stated)
GI50 (SK-MEL-2): 27.2 µM (inactive)
GI50 (UACC-257): 21.6 µM (inactive)
GI50 (UO-31): 50.4 µM (inactive)
GI50 (MDA-N): 56.9 µM (inactive)
GI50 (OVCAR-3): 89.1 µM (inactive)
GI50 (OVCAR-8): > 100 µM (inactive)
GI50 (MDA-MB-435): 54.3 µM (inactive)
GI50 (MOLT-4): > 100 µM (inactive)
GI50 (K562): 37.3 µM (inactive)
GI50 (HL-60): 6.14 µM (inactive)
GI50 (CCRF-CEM): 70.5 µM (inactive)
GI50 (SF-268): > 100 µM (inactive)
GI50 (KM12): 17.2 µM (inactive)
GI50 (A498): 40 µM (inactive)
GI50 (U-251): > 100 µM (inactive)
GI50 (NCI-H460): 54.6 µM (inactive)
GI50 (HT-29): 12 µM (inactive)
GI50 (IGROV-1): 26.2 µM (inactive)

CCc1n[nH]c(=O)n1/N=C/c1ccc(/C=N/n2c(CC)n[nH]c2=O)cc1
GI50 (SK-MEL-2): > 100 µM (inactive)
GI50 (UACC-257): > 100 µM (inactive)
GI50 (UO-31): > 100 µM (inactive)
GI50 (MDA-N): > 100 µM (inactive)
GI50 (OVCAR-3): > 100 µM (inactive)
GI50 (OVCAR-8): > 100 µM (inactive)
GI50 (MDA-MB-435): > 100 µM (inactive)
GI50 (MOLT-4): > 100 µM (inactive)
GI50 (K562): > 100 µM (inactive)
GI50 (HL-60): > 100 µM (inactive)
GI50 (CCRF-CEM): > 100 µM (inactive)
GI50 (SF-268): > 100 µM (inactive)
GI50 (CAKI-1): > 100 µM (inactive)
GI50 (KM12): > 100 µM (inactive)
GI50 (A498): > 100 µM (inactive)
GI50 (U-251): > 100 µM (inactive)
GI50 (NCI-H460): > 100 µM (inactive)
GI50 (HT-29): > 100 µM (inactive)
GI50 (IGROV-1): > 100 µM (inactive)
